“Also recorded” adds a separate entry of the source.
Assays:
STHdh 111/111 = assay: Morphology of striatal cells expressing mutated huntingtin; type: cell-based, mouse; conditions: versus not treated STHdh 111/111
mHTT = mHTT (Mus musculus, UniProt P42859, DEL28-30/G47A/INS49LLPQPQPP/INS60VA/L56P/P40L); assay: Diffuse mHTT levels in heat shocked STHdh 111/111 striatal cells by immunocytochemistry
Experimental: (§3) Pre-Treatment of striatal cell line - First the medium was removed and new DMEM (DMEM, high glucose, HEPES, no phenol red) medium, supplemented with 10% fetal bovine serum (FBS), 1% Penicillin-Streptomycin, containing 10 µM compound was added. The cells were incubated at 33° C. for 24 hours.
(§4) Heat shock - Cells were heat shocked for 3 hours at 41° C.
(§5) Treatment - Medium was removed and new DMEM (DMEM, high glucose, HEPES, no phenol red) medium, supplemented with 1% fetal bovine serum (FBS), 1% Penicillin-Streptomycin, containing 10 µM compound was added. The cells were incubated at 33° C. for 48 hours.
Staining - Cells were permeabilized with 0.3% Triton X-100 in 4° C. PBS (pH 7.4 from ThermoFisher) for 10 minutes. Then the cells were washed two times with 4° C. PBS. Subsequently, cells are blocked with 3% NGS (normal goat serum from Thermo Fisher) in 4° C. PBS for 1 hour. Cells were incubated with primary antibodies in blocking buffer (PBS, 3% NGS, 0.02% NaN3) over night at 4° C. Primary antibodies were mouse antipolyglutamine monoclonal antibody 3B5H10 (Sigma-Aldrich) at 1:250 dilution and Guinea Pig anti-MAP2 polyclonal antibody (Synaptic Systems) at 1:500 dilution. 3B5H10 binds to diffuse mHTT. Diffuse mHTT is a monomeric and small oligomeric mHTT.
Cells were washed 2 times with 4° C. PBS, and then incubated with secondary antibodies at 1:2000 dilution in blocking buffer for 1 hour at room temperature. […] Cells were washed 2 times with 4° C. PBS, and then the nuclei were counterstain with DAPI (ThermoFisher) for 10 min at room temperature in the dark. Cells were washed 2 times with 4° C. PBS, and then 4° C. PBS was added to cells and then images were acquired.
Fluorescence Imaging - Imaging sessions were performed on a confocal microscope system (Carl Zeiss Microscopy) equipped with a dual spinning disk unit (Yokogawa). All components of the imaging system were controlled via the ZEN 2 software suite (Carl Zeiss Microscopy). The laser lines used were 405 nm, 488 nm and 639 nm to excite DAPI or the respective fluorophores. […] Nested t test was performed to calculate the significance amongst repeated measurements using GraphPad Prism software.
EC 50 value was determined with non-linear regression.

zebrafish larvae [1] = assay: Zebrafish MPP+ model, sleep parameters; type: in vivo; conditions: co-incubation with MPP+
Experimental: (§1) Six groups were included in each experiment. Immediately after spawning, 40 embryos per group were allocated to a 24-well plate and system water (solvent) was added to all wells. For assessment of neuroprotective potential, Compound 4 was added for a final concentration of 1, 10 and 20 µM (column 4-6). From the following day at 24 hpf, Compound 4 was co-incubated with 500 µM MPP+. MPP+ was prepared immediately prior to incubation and solutions were changed daily. At 120 hpf, drug treatment and MPP+ exposure was ceased and a 3X wash was performed with system water. Larvae were then relocated to 96-well plates for behavioral recording and placed in a separate recording room for 24-hour acclimation. Prior to behavioral recording, wells were fully replenished system water.
(§2) Naive group was exposed to solvent only. Vehicle group was exposed to solvent and vehicle corresponding to the vehicle of 20 µM drug solution (0.02% DMSO). MPP+ positive control was exposed to solvent and 500 µM MPP+. All compound groups were treated with the respective vehicle and respective concentration of compound 4.
Behavioral data was recorded from 1 p.m. on 6 dpf until shortly after wakening on 7 dpf. The recording consisted of a photomotor assay in which lights switch off and on in 30-minute intervals between 1 p.m. and 6 p.m., producing a consistent photomotor response. […]

[2] = Pharmacokinetics, plasma and brain concentration by UHPLC-TOF; type: in vivo, mice; conditions: mouse, in vivo
Experimental: Compound 22 is an analog of Compound 7. […] Compound 22 pharmacokinetic properties was measured in three male CD1 mice at several timepoints. Compound 22 was dissolved in 10% DMSO, 10%, cremaphor, and 80% saline. The tested dose was 33.3 mg/kg body weight. Brain tissue was homogenized and protein precipitated with acetonitrile. […] As such, Compound 22 was selected for testing in an animal model of HD the R6/2 model. As described below, Compound 22 and its analogs were further tested for their effects on striatal cell viability and effects of mHTT levels.

phospho-Tau (Ser404) = assay: Phospho-Tau (Ser404) levels in STHdh 7/7 cells by immunocytochemistry; type: cell-based, mouse
Text: Effect of Compound 4 on Phospho-Tau (Ser396) levels - ST HDH Q7/7 (CH00097, Coriell Institute) striatal derived cell line from a knock in transgenic mouse containing HTT loci with a humanized Exon 1 containing 7 polyglutamine repeats. Diffuse mHTT quantified with immunocytochemistry as described in Example 33 with the exception that instead of 3B5H10 antibody for staining mHTT, phospho-Tau (Ser404) polyclonal antibody (ThermoFisher, Catalog 44-758G) was used to stain phospho-Tau (Ser396) and no heat shock was used.

Exon1 Q46 = assay: Circular dichroism of Exon1 Q46, predominantly α-helical state; type: biochemical; conditions: Exon1 Q46; conc. compound 0.647 µM
Experimental: Protein samples were diluted with buffer to 7.5 µM prior to Circular Dichroism (CD) measurements. Measurements were conducted at room temperature.
Four spectra at each measurement were taken every 1 nm from 200 to 260 nm, scanning at 50 nm/min with an averaging time of 1 sec. Spectra were obtained from samples in 20 mM phosphate, pH 7.4. Ten scans were averaged for each sample spectrum
Single-wavelength readings at 222 nm were obtained. After subtraction of the Trx contribution, the α-helical content of Httex1 was estimated from its mean residue ellipticity (MREHttex1) at 222 nm. This calculation was conducted as described by Bravo-Arredondo (Bravo-Arredondo, J.M. et al., J Biol Chem. 2018 Dec 21;293(51):19613-19623).
MRE Exon-1 […] and Q46 (Mean Residue Ellipticity) was measured every 1 sec for 300 sec; the 301 readings for each sample were averaged and MRE Trx subtracted. The number of amino acids in each sample to experience a change in helicity was estimated using a previously developed helix-coil transition model, which gave the change in fraction of helicity (ΔfHelix) by the following equation: […]
where MRE Exon1 Q26 or Q46 (MREHttex1 in the formula) describes the helix-coil transition, obtained from the difference between MRE Eon1 Q26 or Q46 at 222 nm of the fusion protein at the given temperature (in our case 37° C.) and the product of MRE Trx at 222 nm at the same temperature and the fraction of residues comprised by Trx in that particular construct, and
In order to calculate an equilibrium of the two states model, percent α-helicity was calculated using the relation of MREHttex1 = 0 and -34700 (deg cm^2 dmol^-1) for 0% and 100% helicity, respectively.
The CD measurements protocol for Compound 101 was the same as outlined above except that from 206 nm - 210 nm and 220 nm - 224 nm, the step size was 0.2 nm, and the bandwidth was 1 nm.

[3] = system: STHdh 111/111 striatal cells; assay: Cell viability (CellTiter Glo) of heat shocked STHdh 111/111 striatal cells; type: cell-based, mouse; conditions: Mus musculus, STHdh 111/111; 10 µM; 48 hours treatment; read-out: Cell Viability striatal cells 3h heat shocked
Experimental: Cell culture - ST HDH Q111/111 (CH00095, Coriell Institute) striatal derived cell line were grown at 33° C. in DMEM (Sigma-Aldrich), supplemented with 10% fetal bovine serum (FBS), 1% Penicillin-Streptomycin (ThermoFisher Scientific), and 0.4 mg/ml G418 (Geneticin; Invitrogen). ST HDH Q111/111 are mouse striatal cells with polyQ length of 1111.
as §3, §4, §5
Cell Viability - Cell viability was measured according to manufacturer recommendations with CellTiter Glo (Promega). 96-well plates for used either for cell viability determination or cell staining.

phospho-Tau (Ser396) = assay: Phospho-Tau (Ser396) levels in STHdh 7/7 cells by immunocytochemistry; type: cell-based, mouse
Experimental: Effect of Compound 4 on Phospho-Tau (Ser396) levels - ST HDH Q7/7 (CH00097, Coriell Institute) striatal derived cell line from a knock in transgenic mouse containing HTT loci with a humanized Exon 1 containing 7 polyglutamine repeats. Immunocytochemistry was conducted as described in Example 33 with the exception that instead of 3B5H10 antibody for staining mHTT, phospho-Tau (Ser396) polyclonal antibody (ThermoFisher, Catalog 44-752G) was used to stain phospho-Tau (Ser396).

zebrafish larvae [4] = assay: Zebrafish MPP+ motility model, photomotor assay; type: in vivo
Experimental: MPP+ selectively targets dopaminergic neurons; the putative mechanism is induction of K+ efflux, cell membrane hyperpolarization and inhibition of neuronal firing. This ultimately leads to an inhibition of complex I, a decrease in ATP production and promotion of the generation of reactive oxygen species upon accumulation in the mitochondria (3). The observed phenotype following exposure to 500 µM from 24 hours post fertilization (hpf) to 120 hpf is characterized by a decrease in movement during lights-on phases of a photomotor assay. In unpublished data below, representative locomotor perturbations of the distance moved and movement frequency is shown.
as §1, §2
Behavioral data was recorded from 1 p.m. on 6 dpf until shortly after wakening on 7 dpf. The recording consisted of a photomotor assay in which lights switch off and on in 30-minute intervals between 1 p.m. and 6 p.m., producing a consistent photomotor response. […] Upon lights being turned on again, the larvae cease movement followed by a return to baseline. This cycle is repeated five times. Following the last lights-off phase, constant illumination is presented until lights turn off at 10 p.m. for the night. Lights turn on again at 8 a.m. the following day.
Average movement frequency was measured during 30-minute lights-on phases of photomotor assay. Movement bouts were defined as initiated when velocity exceeded a threshold of 2 mm/s and ceased when velocity fell below 1 mm/s.
Distance moved (mm) was defined as the average distance moved during 30-minute lights-on phases of photomotor assay.
Data was obtained using EthoVision XT (Version 11.5.2016, Noldus) and exported to Microsoft Excel for data analysis. […]

[5] = 1, 10 and 20 µM with 500 µM MPP+

mHTT, sequence (P42859 with tags, fused parts or gaps DEL28-30/P40L/G47A/INS49LLPQPQPP/L56P/INS60VA): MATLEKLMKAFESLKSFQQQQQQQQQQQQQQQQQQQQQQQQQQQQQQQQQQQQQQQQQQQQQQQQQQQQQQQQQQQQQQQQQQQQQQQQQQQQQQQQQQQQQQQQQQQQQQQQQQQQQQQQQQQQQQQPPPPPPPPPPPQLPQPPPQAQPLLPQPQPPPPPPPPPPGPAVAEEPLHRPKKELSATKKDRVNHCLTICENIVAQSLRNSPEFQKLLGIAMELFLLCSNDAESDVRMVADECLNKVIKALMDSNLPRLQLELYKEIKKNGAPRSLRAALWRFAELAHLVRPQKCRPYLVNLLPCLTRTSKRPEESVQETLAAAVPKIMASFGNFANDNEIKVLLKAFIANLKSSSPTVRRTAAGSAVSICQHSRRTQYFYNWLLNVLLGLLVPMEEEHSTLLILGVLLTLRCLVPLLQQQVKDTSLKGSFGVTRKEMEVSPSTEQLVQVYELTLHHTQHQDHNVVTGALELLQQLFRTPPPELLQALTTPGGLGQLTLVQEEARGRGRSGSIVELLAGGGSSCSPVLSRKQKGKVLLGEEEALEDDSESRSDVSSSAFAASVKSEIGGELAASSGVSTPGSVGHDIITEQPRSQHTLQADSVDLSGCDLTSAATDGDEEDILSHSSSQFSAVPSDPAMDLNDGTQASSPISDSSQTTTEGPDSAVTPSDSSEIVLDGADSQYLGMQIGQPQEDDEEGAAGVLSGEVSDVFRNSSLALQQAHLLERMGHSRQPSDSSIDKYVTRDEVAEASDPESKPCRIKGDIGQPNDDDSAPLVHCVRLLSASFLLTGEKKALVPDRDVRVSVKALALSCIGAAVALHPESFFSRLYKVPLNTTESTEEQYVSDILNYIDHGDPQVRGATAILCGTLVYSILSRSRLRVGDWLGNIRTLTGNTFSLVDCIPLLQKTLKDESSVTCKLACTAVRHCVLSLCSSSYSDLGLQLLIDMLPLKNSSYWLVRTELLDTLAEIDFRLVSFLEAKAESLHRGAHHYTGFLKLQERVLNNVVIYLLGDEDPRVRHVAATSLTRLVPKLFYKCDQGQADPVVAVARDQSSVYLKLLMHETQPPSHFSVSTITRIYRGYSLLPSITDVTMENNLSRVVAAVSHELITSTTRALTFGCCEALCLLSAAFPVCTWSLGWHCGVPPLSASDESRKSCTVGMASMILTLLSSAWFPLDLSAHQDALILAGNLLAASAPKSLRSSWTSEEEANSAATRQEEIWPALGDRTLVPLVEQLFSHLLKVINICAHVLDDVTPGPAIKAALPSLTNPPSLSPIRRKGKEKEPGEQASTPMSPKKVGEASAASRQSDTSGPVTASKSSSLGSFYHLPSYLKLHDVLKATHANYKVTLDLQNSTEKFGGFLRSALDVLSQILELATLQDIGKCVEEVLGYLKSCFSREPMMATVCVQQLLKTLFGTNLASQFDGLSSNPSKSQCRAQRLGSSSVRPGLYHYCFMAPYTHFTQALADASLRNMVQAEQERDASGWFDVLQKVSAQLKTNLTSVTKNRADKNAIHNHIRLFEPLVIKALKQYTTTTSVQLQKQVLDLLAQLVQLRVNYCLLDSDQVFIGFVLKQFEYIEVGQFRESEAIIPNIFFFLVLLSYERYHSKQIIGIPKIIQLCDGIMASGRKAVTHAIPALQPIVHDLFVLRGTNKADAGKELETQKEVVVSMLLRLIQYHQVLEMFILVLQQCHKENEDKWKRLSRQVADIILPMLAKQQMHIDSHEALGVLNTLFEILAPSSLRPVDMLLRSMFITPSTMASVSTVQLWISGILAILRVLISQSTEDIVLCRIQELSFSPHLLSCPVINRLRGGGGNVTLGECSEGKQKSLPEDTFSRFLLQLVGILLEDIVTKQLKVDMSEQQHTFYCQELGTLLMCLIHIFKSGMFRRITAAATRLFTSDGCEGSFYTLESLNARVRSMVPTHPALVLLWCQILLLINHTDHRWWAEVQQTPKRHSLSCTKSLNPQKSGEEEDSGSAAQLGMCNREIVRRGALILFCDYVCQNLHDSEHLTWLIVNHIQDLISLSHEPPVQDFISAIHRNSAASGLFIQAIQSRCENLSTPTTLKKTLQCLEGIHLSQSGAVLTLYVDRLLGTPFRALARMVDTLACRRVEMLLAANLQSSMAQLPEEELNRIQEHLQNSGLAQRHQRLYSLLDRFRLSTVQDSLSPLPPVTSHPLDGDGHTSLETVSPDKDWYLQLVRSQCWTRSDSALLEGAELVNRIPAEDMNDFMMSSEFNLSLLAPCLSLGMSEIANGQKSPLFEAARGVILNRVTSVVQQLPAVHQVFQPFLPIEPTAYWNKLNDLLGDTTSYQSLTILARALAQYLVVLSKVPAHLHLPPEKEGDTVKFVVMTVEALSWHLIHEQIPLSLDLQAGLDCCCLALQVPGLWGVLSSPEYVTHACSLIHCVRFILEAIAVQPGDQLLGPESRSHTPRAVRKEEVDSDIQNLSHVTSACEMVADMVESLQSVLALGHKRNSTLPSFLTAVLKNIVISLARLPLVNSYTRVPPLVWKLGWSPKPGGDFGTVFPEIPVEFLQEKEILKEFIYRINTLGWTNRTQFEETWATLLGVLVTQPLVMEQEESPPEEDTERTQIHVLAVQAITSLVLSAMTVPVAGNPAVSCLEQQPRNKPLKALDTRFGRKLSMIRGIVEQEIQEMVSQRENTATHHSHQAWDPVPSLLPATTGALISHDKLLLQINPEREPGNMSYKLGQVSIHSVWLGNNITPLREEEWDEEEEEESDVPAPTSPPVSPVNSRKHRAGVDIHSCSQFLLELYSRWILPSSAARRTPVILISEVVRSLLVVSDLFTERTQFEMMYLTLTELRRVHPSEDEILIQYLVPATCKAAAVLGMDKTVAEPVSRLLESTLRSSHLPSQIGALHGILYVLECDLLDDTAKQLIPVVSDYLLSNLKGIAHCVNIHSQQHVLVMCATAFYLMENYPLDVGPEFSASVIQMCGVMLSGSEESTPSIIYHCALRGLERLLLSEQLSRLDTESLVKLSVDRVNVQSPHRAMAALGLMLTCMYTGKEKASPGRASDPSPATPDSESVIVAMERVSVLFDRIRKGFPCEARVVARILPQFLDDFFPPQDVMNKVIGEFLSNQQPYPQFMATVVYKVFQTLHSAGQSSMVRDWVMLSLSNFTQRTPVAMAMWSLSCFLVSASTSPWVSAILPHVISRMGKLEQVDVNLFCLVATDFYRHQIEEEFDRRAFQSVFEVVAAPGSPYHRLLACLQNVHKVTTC

## CCc1c(C)[nH]c2ccc(C(=O)NCCN(CC)CC)cc12 [Compound 4, N-(2-(diethylamino)ethyl)-3-ethyl-2-methyl-1H-indole-5-carboxamide]
STHdh 111/111
  morphology of STHdh 111/111: improved cell viability, dendrite outgrowth and increased cell size
mHTT
  EC50: 130 nM
mHTT; STHdh 111/111, in comparison to untreated cells
  Diffuse mHTT reduced by: 68%
Zebrafish larvae [1]
  sleep parameters (sleep fragmentation, sleep ratio, velocity, wake bout duration, sleep bout duration): No statistically significant difference; also recorded: does neither reduce nor increase sleep
[2]
  crossing of the blood brain barrier: can cross the blood brain barrier
phospho-Tau (Ser404); STHdh 7/7, 10 µM, no heat shock, in comparison to untreated cells
  Phospho-Tau (Ser404) reduced by: 40%
phospho-Tau (Ser404); STHdh 7/7 exposed to 10 mM ammonium chloride
  Phospho-Tau (Ser404) reduction: could not reduce
Exon1 Q46
  Fraction Helix fH (%): 20.0%
[3]
  viability at 10 µM: 125%
phospho-Tau (Ser396); STHdh 7/7, 10 µM, in comparison to untreated cells
  Phospho-Tau (Ser396) reduced by: 26.3%
phospho-Tau (Ser396); STHdh 7/7 exposed to 10 mM ammonium chloride, 5 µM
  Phospho-Tau (Ser396) reduction: could not reduce
phospho-Tau (Ser396); STHdh 7/7 exposed to ammonium chloride, 10 µM
  Phospho-Tau (Ser396) reduction: 15.2%
Zebrafish larvae [4]; [5]
  distance moved, drug treatment groups compared to MPP+: no significant difference
  movement frequency, drug treatment groups compared to MPP+: no significant difference
Zebrafish larvae [4]; concentrations ~10 µM and ~1 µM with MPP+
  overall movement during assessment of neuroprotection: subtle increase in overall movement
